Entries after “also recorded” stand apart in the source; their conditions may differ. Where two headings read alike, the source gives them in different places.
How the values were obtained:
[1] = Lipophilicity determination by RP-HPLC (capacity factor, log k); type: physicochemical; details: end-capped C18, isocratic MeOH 60%/H2O 40%
Procedure: Lipophilicity is a property that has a major effect on bioavailability, biotransformation as well as pharmacological activity, because drugs cross biological membranes through passive transport, which strongly depends on their lipophilicity. Lipophilicity of the studied compounds was determined by RP‑HPLC as capacity factor logarithm (log k). The procedure was performed under isocratic conditions with methanol as an organic modifier in the mobile phase using an end-capped non-polar C18 stationary RP column. The results of ring-substituted naphthalene-1-carboxanilides 1–8c are shown in Table 1 and illustrated in Figure 1. […] Lipophilicity was also calculated as log P using ACD/Percepta ver. 2012 (Advanced Chemistry Development, Inc., Toronto, ON, Canada).
A HPLC system Agilent 1200 equipped with DAD detector (Agilent, USA) was used. A chromatographic column Symmetry® C18 5 μm, 4.6 × 250 mm, Part No. WAT054275 (Waters Corp., Milford, MA, USA) was used. The HPLC separation process was monitored and evaluated by EZChrom Elite software ver. 3.3.2 (Agilent, USA). Isocratic elution by a mixture of MeOH p.a. (60%) and H2O-HPLC Mili-Q grade (40%) as a mobile phase was used. The total flow of the column was 1.0 mL/min, injection 20 μL, column temperature 40 °C, and sample temperature 10 °C. The detection wavelength 210 nm was chosen. The KI methanolic solution was used for the dead time (tD) determination. Retention times (tR) were measured in minutes. The capacity factors k were calculated according to formula k = (tR − tD)/tD, where tR is the retention time of the solute, whereas tD denotes the dead time obtained using an unretained analyte. Log k, calculated from the capacity factor k, is used as the lipophilicity index converted to log P scale.

[2] = tested on: Mycobacterium avium subsp. paratuberculosis CIT03; experiment: In vitro antimycobacterial evaluation (MIC/IC90, alamarBlue); type: cell-based; details: for antimycobacterial activity relative to ciprofloxacin / antimycobacterial activity relative to rifampicin: M. avium subsp. paratuberculosis, comparison of MICs; for MIC: Mycobacterium avium
Procedure: The MIC/IC90 value is routinely and widely used in bacterial assays and is a standard detection limit according to the Clinical and Laboratory Standards Institute.
A well-characterized clinical isolate of Mycobacterium avium subsp. paratuberculosis (CIT03) was grown in Middlebrook broth (MB), supplemented with Oleic-Albumin-Dextrose-Catalase supplement (OADC, Becton, Dickinson and Comp., Franklin Lakes, NJ, USA) and mycobactin J (2 µg/mL). Identification of this isolate was performed using biochemical and molecular protocols. At log phase growth, a culture sample (10 mL) was centrifuged at 15,000 rpm/20 min using a bench top centrifuge (Model CR 4-12, Jouan Inc., Winchester, VA, USA). Following removal of the supernatant, the pellet was washed in fresh Middlebrook 7H9GC broth and re-suspended in fresh supplemented MB (10 mL). The turbidity was adjusted to match McFarland standard No. 1 (3 × 10^8 cfu) with MB broth. A further 1:20 dilution of the culture was then performed in MB broth. The antimicrobial susceptibility of the mycobacterial species was investigated in a 96-well plate format. In these experiments, sterile deionized water (300 µL) was added to all outer-perimeter wells of the plates to minimize evaporation of the medium in the test wells during incubation. Each evaluated compound (100 µL) was incubated with the mycobacterial species (100 µL). Dilutions of each compound were prepared in duplicate. For all synthesized compounds, final concentrations ranged from 1,000 µg/mL to 8 µg/mL. All compounds were prepared in DMSO and subsequent dilutions were made in supplemented MB. The plates were sealed with parafilm and incubated at 37 °C for 11 days.
Following incubation, a 10% addition of alamarBlue (AbD Serotec, Kidlington, UK) was mixed into each well and readings at 570 nm and 600 nm were taken, initially for background subtraction and subsequently after 24 h re-incubation. […] For non-interfering compounds, a blue colour in the well was interpreted as an absence of growth and a pink colour was scored as growth. Furthermore percent reduction of alamarBlue was calculated to generate quantitative data on cell viability during exposure to antimycobacterial compounds over a period of 5 days. The formula used to determine percent reduction of alamarBlue has been standardized for colorimetric analysis by Abd Serotec.
The MIC value is routinely and widely used in bacterial assays and is a standard detection limit according to the Clinical and Laboratory Standards Institute.

[3] = physchem; details: aqueous buffer, kinetic from dmso stock
[4] = tested on: human monocytic leukemia THP-1 cell line; experiment: In vitro cytotoxicity assay (LDH); details: for LD50: human, 24 h; for lethal effect / toxicity on THP-1 cells: treatment with 30 μmol/L
Procedure: Human monocytic leukemia THP-1 cells were obtained from the European Collection of Cell Cultures (ECACC, Salisbury, UK; Methods of characterization: DNA Fingerprinting (Multilocus probes) and isoenzyme analysis). These cells were routinely cultured in RPMI 1640 (Lonza, Verviers, Belgium) medium supplemented with 10% fetal bovine serum (FBS, Sigma-Aldrich, St. Louis, MO, USA), 2% L-glutamine, 1% penicillin and streptomycin (Lonza) at 37 °C with 5% CO2. Cells were passaged at approximately one-week intervals. Cells were routinely tested for the absence of mycoplasma (Hoechst 33258 staining method). The tested compounds were dissolved in DMSO (Sigma-Aldrich) and added in five increasing concentrations to the cell suspension in the culture medium. The maximum concentration of DMSO in the assays never exceeded 0.1%. Subsequently, the cells were incubated for 24 h at 37 °C with 5% CO2 to various compound concentrations ranging from […] in RPMI 1640 medium. Cell toxicity was determined using a Cytotoxicity Detection Kit^PLUS Lactate dehydrogenase (LDH) assay kit (Roche Diagnostics, Mannheim, Germany) according to the manufacturer’s instructions, as described previously. For LDH assays, cells were seeded into 96-well plates (5 × 10^4 cells/well in 100 μL culture medium) in triplicate in serum-free RPMI 1640 medium, and measurements at 492 nm wavelength (Synergy 2 Multi-Mode Microplate Reader, BioTek, Winooski, VT, USA) were taken 24 h after the treatment with tested compounds. The median lethal dose values, LD50, were deduced through the production of a dose-response curve. All data were evaluated using GraphPad Prism 5.00 software (GraphPad Software, San Diego, CA, USA).
LDH Test Principle: The LDH activity is determined by a coupled enzymatic reaction, whereby the tetrazolium salt INT is reduced to formazan. An increase in the amount of dead or plasma membrane damaged cells results in an increase of LDH enzyme activity in the culture supernatant. This increase in the amount of enzyme activity in the supernatant directly correlates to the amount of formazan formed during a limited time period.

[5] = tested on: M. avium subsp. paratuberculosis; experiment: MTT assay on mycobacteria; type: cell-based, Mycobacterium avium subsp. paratuberculosis; details: lowest tested concentration 8 µg/mL (ca. 30 µmol/L), four hours of incubation
Procedure: Additionally, a standard MTT assay was performed on these same compounds. The MTT assay is a well-characterized method of assessing cell growth through measurement of respiration.
For the MTT assay, the same 96-well plate set up and incubation conditions listed above were used. After the incubation period, a 10% addition of MTT reagent was mixed into each well and incubated at 37 °C for 4 h. The reagent and media were then aspirated from the wells to which 50 µL DMSO was then added and plates were read at 550 nm.

[6] = tested on: photosynthetic electron transport (PET) in isolated spinach chloroplasts; experiment: Inhibition of photosynthetic electron transport (PET) in isolated spinach chloroplasts; type: biochemical, Spinacia oleracea L.; details: DCPIP photoreduction
Procedure: The PET-inhibiting activity was expressed by IC50 value, i.e., compound concentration in mol/L causing 50% inhibition of PET.
Chloroplasts were prepared from spinach (Spinacia oleracea L.) according to Masarovicova and Kralova. The inhibition of photosynthetic electron transport (PET) in isolated spinach chloroplasts was determined spectrophotometrically (Genesys 6, Thermo Scientific, USA), using an artificial electron acceptor 2,6-dichlorophenol-indophenol (DCIPP) according to Kralova et al., and the rate of photosynthetic electron transport was monitored as a photoreduction of DCPIP. The measurements were carried out in phosphate buffer (0.02 mol/L, pH 7.2) containing sucrose (0.4 mol/L), MgCl2 (0.005 mol/L) and NaCl (0.015 mol/L). The chlorophyll content was 30 mg/L in these experiments and the samples were irradiated (~100 W/m^2 with 10 cm distance) with a halogen lamp (250 W) using a 4 cm water filter to prevent warming of the samples (suspension temperature 22 °C). The studied compounds were dissolved in DMSO due to their limited water solubility. […] The inhibitory efficiency of the studied compounds was expressed by IC50 values, i.e., by molar concentration of the compounds causing 50% decrease in the oxygen evolution rate relative to the untreated control.

[7] = tested on: human monocytic leukemia THP-1 cell line; details: THP-1 cells; assessed in this line formerly; cited from earlier work
[8] = 264 h, clinical isolate CIT03, 11 days at 37 °C, alamarBlue, MIC = 90% or greater reduction of growth, read-out: MAP MIC/IC90
[9] = clinical isolate CIT03, read-out: MIC
[10] = clinical isolate CIT03, 11 days at 37 °C, alamarBlue, MIC = 90% or greater reduction of growth

| SMILES | log k [1] | antimycobacterial activity relative to ciprofloxacin [2] | antimycobacterial activity relative to rifampicin [2] | MIC [2, 8] | solubility [3] | LD50 [4] | lethal effect / toxicity on THP-1 cells [4] | MIC [2, 9] | MAP MIC/IC90 [2, 10] | reduction in activity (MTT) [5] | IC50 [6] | LD50 [7] |
| --- | --- | --- | --- | --- | --- | --- | --- | --- | --- | --- | --- | --- |
| COc1ccccc1NC(=O)c1cccc2ccccc12 [Compound 2a, N-(2-Methoxyphenyl)naphthalene-1-carboxamide] | 0.8013 | three-fold higher | two-fold higher | 54 µM | ≤ 30 µM | >30 µmol/L | did not lead to significant lethal effect; also recorded: insignificant toxicity |  |  |  |  |  |
| COc1cccc(NC(=O)c2cccc3ccccc23)c1 [Compound 2b, N-(3-Methoxyphenyl)naphthalene-1-carboxamide] | 0.6087 | three-fold higher | two-fold higher | 54 µM | ≤ 30 µM | >30 µmol/L | did not lead to significant lethal effect; also recorded: insignificant toxicity | 15 µg/mL | 54 µM | more than 80% |  |  |
| Cc1cccc(NC(=O)c2cccc3ccccc23)c1 [Compound 3b, N-(3-Methylphenyl)naphthalene-1-carboxamide] | 0.7624 | three-fold higher | two-fold higher | 57 µM | ≤ 30 µM | >30 µmol/L | did not lead to significant lethal effect; also recorded: insignificant toxicity |  |  |  | 136 µM |  |
| O=C(Nc1cccc(F)c1)c1cccc2ccccc12 [Compound 4b, N-(3-Fluorophenyl)naphthalene-1-carboxamide] | 0.7204 | three-fold higher | two-fold higher | 57 µM | ≤ 30 µM | >30 µmol/L | did not lead to significant lethal effect; also recorded: insignificant toxicity | 15 µg/mL | 57 µM |  | 131 µM |  |
| CC[C@@]1(O)C(=O)OCc2c1cc1n(c2=O)Cc2cc3ccccc3nc2-1 [camptothecin] |  |  |  |  |  |  |  |  |  |  |  | 0.16 ± 0.07 µmol/L |

Reference: article PMC6270837, “Preparation and Biological Properties of Ring-Substituted Naphthalene-1-Carboxanilides” (Molecules, 2014)
